For assay [1], the system named is eye of myopic human patient. The assay can be described thus: Safety and efficacy of hyaluronidase and topical 3% glyceraldehyde solution, myopia in a human patient (Example 8). In kind it is in vivo. The following applies: one subject, baseline UVA 20/300; 50 IU hyaluronidase, 7 days incubation, 7 days corrective lens wear, before drops. The protocol: In this study, a single subject was selected to test the safety and efficacy of using hyaluronidase and a glyceraldehyde solution to treat sub-optimal visual acuity. In this study, the subject was first medically evaluated and a baseline was established. A medical history of the subject was taken and a detailed examination of the subject's eyes was also performed. The subject's eyes were tested to determine: refraction, cell count, intraocular pressure (IOP), pachymetry, corneal topography and corneal elasticity. A slit-lamp examination was also performed to establish the health of the eyes. Also, the presence of any general or ocular discomfort of the subject was noted.
Following the establishment of a baseline reading (UVA 20/300), the subject was administered a single intrastromal injection of 50 IU hyaluronidase prior to the orthokeratology treatment. Following 7 days of incubation of the subject's eyes with the injected material, the subject was fitted with corrective contact lenses for overnight wear. The subject wore the corrective lenses day and night for a period of seven (7) days. At this point the subject's visual acuity was 20/15. […] The visual acuity of the subject was then monitored for 196 days to determine the effect of the treatment on the unaided visual acuity of the subject;

Assay [2] deals with cornea. Description: Corneal elasticity, recovery from indentation by spherical glass indentor (Example 7). It is filed as in vivo, human. As to conditions: eyes injected with hyaluronidase solution. The protocol: A precision spherical glass indentor was used to contact the corneal surface of subjects treated with the methods of the present invention to measure changes in corneal elasticity. The method used involved the application of the indentor, in the form of a small spherical ball to gently deflect into a test cornea to establish an initial deflection value. Measurements were taken by using an interferometer to view the deflection. Following this application, the relaxation period was measured by observing the change in the impression made by the indentor.
The indentation range of movement was characterized using a precision linear variable differential transducer (LVDT) device that measured the linear travel of a stage carrying the indentor probe. The average travel distance of the probe was established at approximately 700 micrometers. The contact depth of the indentor probe was measured by evaluating the corneal surface immediately after indentation and measuring the local height values caused by the probe contact. This value was measured to range from 266 to 300 micrometers.
A digital timer was used to mark the beginning and ending times during observation. Changes in the impression were readily observed during this period. The final end point was considered to be when the local fringe disturbance was recovered blending with the undisturbed neighboring fringes. […] However, given the time scales involved, the value of this error is considered to be small.
The method of inducing corneal inflection involved first contacting the test corneal with the indentor. After the initial contact with the cornea was established, the probe was moved forward into the cornea to a predetermined distance. Seven hundred microns was used to achieve adequate deflection. Topography was taken immediately after the deflection to record the impression made in the cornea. Observations of the cornea were then made at one (1) minute intervals to note the change in the impression made. […] Another topography was done after five (5) minutes to record the final condition of the impression. […]

Assay [3] has as its system eyes of myopic human subjects. The assay can be described thus: Mild myopia study, group I: 50 IU hyaluronidase, corrective lenses, 3% glyceraldehyde (Example 9). In kind it is in vivo. As to conditions: 50 IU hyaluronidase and corrective lenses. The text has this: (§1) Given the favorable results obtained in Example 8, an additional study was undertaken to test the safety and efficacy of the method of the present invention using a larger group of subjects. In this study, a group of subjects were selected and randomly separated into three test groups to test the safety and efficacy of using hyaluronidase and a glyceraldehyde solution for treating subjects with sub-optimal visual acuity. Groups one and two received an intrastromal injection of hyaluronidase (50 and 500 IU, respectively), while group three received a control injection of saline.
(§2) Following a two week incubation period after the injection, the three groups were fitted with corrective lenses to optimize the visual acuity of the subjects. The corrective lenses were left in place for a period of time sufficient to alter the shape of the subjects' eyes so as to achieve an optimal visual acuity. This period of time was generally 2 days in length. Once an acceptable visual acuity was achieved, the subjects in the three groups received a topical 3% glyceraldehyde solution in the form of ophthalmic drops four times per day while wearing the corrective lenses. The glyceraldehyde treatment was generally administered for one month. Lens wear occurred from 8 to 12 hours during the day.
(§3) At the end of the treatment period both the lens wear and the glyceraldehyde solution administration was terminated. The general health and visual acuity of the subjects was monitored from 3 to 5 months following treatment termination.
Before beginning the experimental protocol, test subjects were examined initially to establish a baseline from which the future results of the treatment were compared. For each subject a medical history was taken and a detailed examination of the eyes was also performed. The eyes of each subject were tested to determine: refraction cell count, intraocular pressure (IOP), pachymetry, corneal topography and corneal elasticity. A slit-lamp examination was also performed to establish the health of the eye. Also, the presence of any general or ocular discomfort of the subjects was noted.
Following the establishment of a baseline reading, group 1 subjects were administered a single intrastromal injection of 50 IU hyaluronidase prior to the orthokeratology treatment. Following 14 days of incubation, the subjects were fitted with corrective contact lenses for overnight wear. Subjects wore the corrective lenses night and day for a period of two (2) to seven (7) days or until visual 20/20 visual acuity was achieved. Subjects achieving an acceptable visual acuity (approximately 20/20) received an application of the topical 3% glyceraldehyde solution ophthalmic drops four times per day (8:00, 12:00, 16:00, and 20:00) for a period of 1 month in conjunction with daytime lens wear for stabilization. Lens wear lasted for 8 to 12 hours per day. The subjects were examined periodically during the glyceraldehyde treatment to monitor changes in the health of the treated eyes.
(§4) At the end of the treatment period, the stabilizing lens were removed and the administration of the 3% glyceraldehyde solution was terminated. Following termination of the treatment, the subjects were examined immediately after treatment was terminated, once a week for the first four weeks after termination, and then monthly to measure changes in the visual acuity of the treated eyes. The health of the eye was also monitored. Sequelae characterized by the appearance or worsening of serious ocular symptoms or slit-lamp findings observed during these examinations was assessed. The proportions of subjects with such findings were analyzed.

For assay [4], the system named is eyes of myopic human subjects. Description: Mild myopia study, group II: 500 IU hyaluronidase, corrective lenses, 3% glyceraldehyde (Example 9). In kind it is in vivo. As to conditions: 500 IU hyaluronidase and corrective lenses.
Description: as §1, §2, §3
The subjects of group II were treated as those in group I in preparation for their participation in the study reported here. Before beginning the experimental protocol, test subjects were examined initially to establish a baseline from which the future results of the treatment were compared.
Following the establishment of a baseline reading, group II subjects were fitted with contact lenses and wore the corrective lenses at night for a period of two (2) to seven (7) days or until an acceptable visual acuity (approximately 20/20) was achieved. Group II test subjects received 500 IU of hyaluronidase by injection as compared to the 50 IU of group I. Two groups of subjects received 500 IU of hyaluronidase. The results obtained from the first group are shown in Table IIIA and the results from the second group are shown in Table IIIA and are identified in the table by the notation Gr. VI. There were no meaningful differences in the treatment protocols between these two groups. Subjects achieving an acceptable visual acuity received the topical 3% glyceraldehyde solution in the form of ophthalmic drops four times per day (08:00, 12:00, 16:00, and 20:00) for a period of 1 month in conjunction with daytime lens wear for stabilization. During this period, lens were occurred for approximately 8-12 hours per day and there was no nocturnal lens wear.
The subjects were examined periodically during the glyceraldehyde treatment to monitor changes in the health of the treated eyes.
as §4, with “examinations were” for “examinations was”

For hyaluronidase, in assay [1], the visual acuity is reported as 20/15. In assay [2], the “change in corneal elasticity vs baseline” value was “significant reduction in corneal elasticity”. For the same substance, the “visual acuity achieved by initial orthokeratological treatment” value is recorded as 20/20 in assay [3] (all subjects except ARR/001 and JLV/015, before drops); 20/25 in assay [3] (subject 001, before glyceraldehyde drops); 20/40 in assay [3] (subject 015, before glyceraldehyde drops). Further, the “visual acuity achieved before glyceraldehyde drops” value in assay [4] (subject 013 (Table IIIA)) was 20/40; in assay [4] (subject 104 (Table IIIB)), 20/50.

Values taken from patent US6537545B1, “Use of corneal hardening agents in enzymeorthokeratology” (ISTA Pharmaceuticals, Inc., priority 1998, dated 2003).
